Assay results reported in patent US20260097073A1, “PROCESS FOR THE PREPARATION OF TUNGSTEN (VI) SALT HYDRATES” (OXOLIFE, S.L., priority 2022, published 2026).

What was measured:
[1] = Stability test: loss on drying with time; type: physicochemical
From the text: The present inventors confirmed the stability of the hydrate resulting from the process of the invention determining the loss on drying with time.
To that end a well-mixed sample of the sodium tungstate hydrate resulting from Example 2, was subjected to the following protocol. Dry clean glass-stopper, shallow weighing bottle under the same conditions to be employed in the determination. Cool to room temperature in a desiccator and take the weight accurately (W1) g. Transfer to the bottle 1 g of the sample, cover it and accurately weigh the bottle and the contents (W2) g. Place the loaded bottle in the drying chamber (oven), remove the stopper and leave it also in the chamber. Dry the sample to the specified time and temperature to a constant mass (105° C.). After drying is completed, open the drying chamber, close the bottle promptly and allow it to cool to room temperature (where applicable) in a desiccator before weighing. Weigh the bottle and the contents (W3) g. Calculation:
The loss on drying should be not more than 15% (w/w).

[2] = Drying of the hydrate salt: loss of the water molecules (IR); type: physicochemical
Description: In this case, the precipitation was performed by adding 2.0 volumes of either MeOH, EtOH, acetone or IPA at room temperature. After overnight stirring at room temperature, the suspensions were filtered at room temperature, and the cakes were washed by percolation with 0.4 volumes of H2O/solvent (1:1), and with 0.4 volumes of the corresponding solvent. […]
This phenomenon was observed when recording the IR spectra of the synthesized and dried products, as none of them show the stretching and bending bands typical of water molecules (FIG. 2).

loss on drying with time ([1]; 6-month 40° C./75% HR): the loss was maintained
loss on drying with time ([1]; 18-month test at 25° C./60% HR): the loss was maintained
loss on drying ([1]; sodium tungstate hydrate resulting from Example 2, dried at 105° C. to constant mass, limit not more than 15% (w/w)): below 15%
fraction of the starting salt that lost the molecules of water ([2]; vacuum dried at a mild temperature of about 50° C.): ~94%
SMILES: O.O.[Na+].[Na+].[O]=[W](=[O])([O-])[O-] [Na2WO4·2H2O, sodium tungstate dihydrate]
stability of the waters of hydration on drying ([2]; drying processes at 100-110° C., IR spectra): dehydration processes of the tungsten salt were detected
